Results on 3 compounds are retold here after US8242170B2, “Use of cis-epoxyeicosatrienoic acids and inhibitors of soluble epoxide hydrolase to reduce cardiomyopathy” (The Regents of the University of California, priority 2005, dated 2012).

“Also recorded” adds a separate entry of the source.

A short description of one data set: Metabolic stability. Format: in vitro ADME.
In data set [1] the target is T1, soluble epoxide hydrolase (sEH) (Homo sapiens, UniProt P34913).
T1 sequence (P34913 with tags, fused parts or gaps A5G/DEL257-257/G258W): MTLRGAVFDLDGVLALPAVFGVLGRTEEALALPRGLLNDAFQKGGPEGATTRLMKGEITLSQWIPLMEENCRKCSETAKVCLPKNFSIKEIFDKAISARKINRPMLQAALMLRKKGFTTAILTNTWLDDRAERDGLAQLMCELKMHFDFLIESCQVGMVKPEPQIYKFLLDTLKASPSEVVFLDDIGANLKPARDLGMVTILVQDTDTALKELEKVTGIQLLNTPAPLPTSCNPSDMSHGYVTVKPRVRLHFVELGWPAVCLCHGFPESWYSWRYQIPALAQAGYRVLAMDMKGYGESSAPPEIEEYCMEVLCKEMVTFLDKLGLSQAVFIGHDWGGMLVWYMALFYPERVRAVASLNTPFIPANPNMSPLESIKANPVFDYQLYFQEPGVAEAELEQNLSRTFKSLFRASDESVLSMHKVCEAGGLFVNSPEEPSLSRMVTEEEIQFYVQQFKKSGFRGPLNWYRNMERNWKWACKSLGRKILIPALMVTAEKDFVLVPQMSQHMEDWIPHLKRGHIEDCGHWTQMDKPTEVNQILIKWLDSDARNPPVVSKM
The data set is described as follows: Inhibition of soluble epoxide hydrolase activity. Format: biochemical. The source says: Any of a number of standard assays for determining epoxide hydrolase activity can be used to determine inhibition of sEH. For example, suitable assays are described in Gill, et al., Anal Biochem 131, 273-282 (1983); and Borhan, et al., Analytical Biochemistry 231, 188-200 (1995)). Suitable in vitro assays are described in Zeldin et al., J. Biol. Chem. 268:6402-6407 (1993). Suitable in vivo assays are described in Zeldin et al., Arch Biochem Biophys 330:87-96 (1996). […]
The enzyme also can be detected based on the binding of specific ligands to the catalytic site which either immobilize the enzyme or label it with a probe such as dansyl, fluoracein, luciferase, green fluorescent protein or other reagent. […] The enzyme also can be detected based on the generation of fluorescent products following the hydrolysis of the epoxide. […]

For data set [2], the system named is TAC-mice (thoracic aortic constriction, cardiac hypertrophy). As to the kind of experiment: Thoracic aortic constriction (TAC) mouse model of pressure overload cardiac hypertrophy. It counts as in vivo, mouse (C57B1/6J). The following applies: for Hypertrophic response, H&E-stained histologic sections (FIG. 2): 3 weeks, compound 950 15 mg/kg twice a day, AUDA-BE 3 mg/kg twice a day, in drinking water; for Cardiac hypertrophy after drug treatment: sEH inhibitor in drinking water for three weeks. As to the method:
Ascending aortic constriction was performed in 8-week-old male C57B1/6J mice (Charles River, Wilmington, Mass.). Animals were anesthetized with intraperitoneal ketamine 50 mg/kg and xylazine 2.5 mg/kg, and aortic constriction was created via a left thoracotomy by placing a ligature securely around the ascending aorta and a 26-gauge needle and then removing the needle. Immediately after the surgery, animals with ascending aortic stenosis were randomized and placed in one of the following regimens for three weeks: (a) compound 950 in drinking water ([…]), (b) AUDA-BE in drinking water, or (c) no drug. Age-matched animals served as controls.
To assess systolic function, echocardiograms were performed using M-mode and two-dimensional measurements as described previously. The measurements represented the average of six selected cardiac cycles from at least two separate scans performed in random-blind fashion with papillary muscles used as a point of reference for consistency in level of scan. End diastole was defined as the maximal left ventricle diastolic dimension and end systole was defined as the peak of posterior wall motion. Fractional shortening (FS), a surrogate of systolic function, was calculated from left ventricle dimensions as follows: FS=((EDD−ESD)/EDD)×100%.
To compare myocyte size, hearts were removed and rinsed for 1 minute in 0.1 mol/L phosphate buffered saline (PBS) with 50 mmol/L KCl (pH 7.2) and subsequently fixed overnight at 4° C. in 4% paraformaldehyde prepared in PBS. Vibratome sections (100 μm) from similar areas of the left ventricles were stained in a 1:20 dilution of rhodamine phalloidin (Molecular Probes, Inc., Eugene, Oreg.) and imaged with a BioRad MRC1000 confocal scanning laser microscope (BioRad Laboratories, Hercules, Calif.). A minimum of 5 optical sections was collected from the free wall of the left ventricle of each animal with a Zeiss 60× NA 1.4 lens. All images used for myocyte measurements were collected with identical laser, iris, gain, and black level operating parameters. Myocyte widths were measured parallel to the direction of the sarcomeres from unbranched regions of the myocytes near an intercalated disk with the length/profile function. Data sets were then compared using Student t tests.
Thoracic aortic constrictions (“TACs”) were created in 8-week-old male C57B1/6J mice as described in Example 1, above, resulting in a chronic pressure overload induced cardiac hypertrophy. TAC-mice were randomized to receive either no therapy or one of two exemplar sEH inhibitors (compound 950 and AUDA-BE) in drinking water for a period of three weeks. […] This effect is independent of the anti-hypertensive action of the drugs, since the hearts were constantly exposed to the high afterload created by the aortic constriction.
All the mice were sacrificed at three weeks after the TAC was created.
FIG. 2 further compares hematoxylin and eosin (“H&E”)-stained histologic section of a sham-operated heart and of TAC-mouse hearts with or without sEHI treatment. […] We further assessed the chamber size and wall thickness in untreated TAC-mice compared to treated TAC-mice using echocardiography.

The test system is the same in data set [3]. The data set is described as above. It counts as in vivo, mouse (C57B1/6J). The conditions noted are these: after 3 and 6 weeks of follow up.
Data set [4] deals with neonatal mouse cardiac myocytes. The data set is described as follows: Angiotensin II induced hypertrophy of primary neonatal mouse cardiac myocytes in culture. It counts as cell-based, mouse (C57B1/6J). The following applies: 48 hours of treatment with ANG II. As to the method:
Single cardiac myocytes were isolated from 5 day old neonatal mice (C57B1/6J) as previously described (Nuss & Marban, J. Physiol. 479 (Pt 2):265-79 (1994); Chiamvimonvat et al., J. Physiol. 483 (Pt 2):307-18 (1995)). Mice were anesthetized with pentobarbital (40 mg/kg) intraperitoneally. Animals were sacrificed by decapitation and hearts excised under sterile conditions into a filter sterilized (0.2 μm) nominally Ca^2+-, bicarbonate-free Hanks HEPES-buffered solution, pH 7.4 at room temperature. Atrial and great vessel tissues were carefully removed. The ventricles were washed and minced in this Ca^2+-free buffered solution containing trypsin (Difco®, BD Diagnostic Systems, Sparks Md., 1.5 mg/ml), DNase (1 ml/100 ml of the enzyme solution). The tissues were then incubated with 2 ml of the enzyme solution and stirred continuously at 37° C. The supernatant was removed and the enzyme solution replaced at five-minute intervals. The supernatant obtained after the first 15 minutes was discarded. Thereafter, the supernatant was diluted 1:1 in bovine calf serum. The cells were centrifuged at 2000 r.p.m. for three minutes and resuspended in MEM culture medium (Invitrogen, Carlsbad, Calif.) containing 5% bovine calf serum (Invitrogen), penicillin G (sodium) and vitamin B12. The viability of the cells was assessed using the trypan blue dye exclusion test. […]

On to `CCCCCCCCCCCCNC(=O)NC12CC3CC(CC(C3)C1)C2` [ADU, N-Adamantyl-N′-dodecyl urea], for which the Metabolic stability result in “Metabolic stability” is on record as “metabolically stable”. Further, in data set [1], the “Activity as inhibitor of sEH” value was “particularly high activity on sEH”.

As to `CCCCOC(=O)CCCCCCCCCCCNC(=O)NC12CC3CC(CC(C3)C1)C2` [AUDA-BE, 12-(3-Adamantan-1-yl-ureido)dodecanoic acid butyl ester], in data set [2], the “Hypertrophic response, H&E-stained histologic sections (FIG. 2)” value was “prevents the development of cardiac hypertrophy; also recorded: completely prevented” and the “Cardiac hypertrophy after drug treatment” value was “almost complete resolution of cardiac hypertrophy”.

Regarding `CCOCCOCCOCCCCCNC(=O)NC12CC3CC(CC(C3)C1)C2` [compound 950, Adamantan-1-yl-3-{5-[2-(2-ethoxyethoxy)ethoxy]pentyl}urea], the “Development of cardiac hypertrophy and failure, echocardiography” value in data set [3] was “can prevent the development of cardiac hypertrophy and failure”. In data set [2], the “Hypertrophic response, H&E-stained histologic sections (FIG. 2)” value is recorded as “prevents the development of cardiac hypertrophy; also recorded: completely prevented” and the “Cardiac hypertrophy after drug treatment” value is reported as “almost complete resolution of cardiac hypertrophy”. Moreover, the “Development of cardiac hypertrophy and failure, M-mode echocardiography (FIG. 3)” value in data set [2] (after three weeks of treatment) is “completely prevented the development of cardiac hypertrophy and failure”. The “Cardiac hypertrophy, whole hearts (FIG. 1)” value in data set [2] (drinking water three weeks, sacrificed at three weeks after TAC) is “no evidence of cardiac hypertrophy”. Also, the “Loss of organization of the myofibrils (myofibril disarray), anti-alpha actinin immunofluorescence (FIG. 4)” value in data set [2] (left ventricle sections, three weeks) is given as “effects were prevented”. The “Cell size of neonatal cardiac myocytes, ANG II plus compound versus ANG II alone” value in data set [4] is recorded as “significant differences in the cell size”.
